From paper PMC9610999, “Itraconazole-Induced Increases in Gilteritinib Exposure Are Mediated by CYP3A and OATP1B” (Molecules, 2022)

How the values were obtained:
[1] = test system: OATP1B biomarkers coproporphyrin (CP) I and CPIII; design: method as in PMID 34049965, PMID 29777022; details: itraconazole 100 mg to human subjects; cited from earlier work
[2] = molecular target: T1, human OATP1B1 (SLCO1B1) (Homo sapiens, UniProt Q9Y6L6); experiment: Transport inhibition assay: EβG uptake in OATP1B1 overexpressing HEK293 cells; format: cell-based; details: OATP1B1 overexpressing HEK293 cells vs vector control; radiolabeled EβG; 15 min pre-incubation; read-out: IC50, inhibition of OATP1B1-mediated cellular accumulation of EβG
T1 construct: expressed in transfected cells; host or cells: HEK293
T1 sequence (Q9Y6L6 1-691): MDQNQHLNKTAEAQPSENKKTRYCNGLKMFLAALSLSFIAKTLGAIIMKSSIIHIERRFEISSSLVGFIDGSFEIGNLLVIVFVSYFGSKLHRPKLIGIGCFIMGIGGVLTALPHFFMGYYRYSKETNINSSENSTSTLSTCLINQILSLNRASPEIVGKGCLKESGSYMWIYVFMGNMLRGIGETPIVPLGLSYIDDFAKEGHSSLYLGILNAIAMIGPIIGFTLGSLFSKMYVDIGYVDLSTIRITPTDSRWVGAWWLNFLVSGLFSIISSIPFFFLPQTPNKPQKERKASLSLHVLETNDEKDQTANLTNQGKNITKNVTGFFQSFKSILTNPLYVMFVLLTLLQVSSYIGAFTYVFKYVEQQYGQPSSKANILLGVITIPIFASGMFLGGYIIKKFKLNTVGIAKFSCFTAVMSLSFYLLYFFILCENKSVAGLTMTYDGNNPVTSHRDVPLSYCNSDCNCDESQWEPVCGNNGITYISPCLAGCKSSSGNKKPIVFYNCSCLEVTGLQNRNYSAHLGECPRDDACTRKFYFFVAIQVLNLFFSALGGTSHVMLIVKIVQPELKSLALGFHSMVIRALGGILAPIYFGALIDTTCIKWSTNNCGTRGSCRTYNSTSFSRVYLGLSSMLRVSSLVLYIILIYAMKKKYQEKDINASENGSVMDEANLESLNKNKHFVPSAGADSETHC
Method: Human embryonic kidney (HEK293) cells stably transfected with human OATP1B1 (SLCO1B1) cDNA, or an empty control vector were established and cultured as previously described. Cells were maintained in DMEM supplemented with 10% FBS, 50 µg/mL hygromycin B, 15 µg/mL blasticidin, and maintained in a humidified incubator at 37 °C with 5% CO2. Prior to plating, 24-well tissue culture plates (Thermo Fisher Scientific) were coated with poly-d-lysine. Seeding media was prepared using phenol red-free DMEM with 10% FBS with no selection agents. To the seeding media, […] of doxycycline was added to induce expression of OATP1B1.
OATP1B1 overexpressing cells and vector control cells were plated in 24-well tissue culture plates at a volume of 0.5 mL (containing 2 × 10^6 cells/mL) per well. Plates were returned to an incubator at 37 °C and transport assays were conducted 24 h later. Transport activity was measured using EβG, a prototypical substrate of OATP1B1. Experiments were conducted using phenol red- and serum-free DMEM. Intracellular levels of total radioactivity originating from EβG were assessed by liquid scintillation counting. The resulting counts were normalized to total protein levels as determined by a Pierce protein assay. The influence of gilteritinib, itraconazole, keto-itraconazole, or hydroxy-itraconazole on OATP1B1-mediated transport was assessed following a 15 min pre-incubation at various concentrations of test inhibitors followed by co-incubation of test inhibitors with EβG. Inhibition of transport activity by gilteritinib was determined by comparing the accumulation of EβG in the presence of gilteritinib, itraconazole, keto-itraconazole, or hydroxy-itraconazole to that of EβG in the presence of only the control vehicle, DMSO. The final concentration of DMSO in media was less than 0.2% in all in vitro experiments.

[3] = test system: CDCA-24G, an endogenous biomarker of OATP1B transporter function; experiment: Plasma CDCA-24G (endogenous biomarker of OATP1B function) in mice treated with itraconazole; format: in vivo

| IC50 [2] | SMILES | Effect on circulating levels of coproporphyrin (CP) I and CPIII [1] | CDCA-24G AUC0–4h ([3]; 100 mg/kg) | CDCA-24G AUC0–4h ([3]; CYP3A(−/−) female mice, itraconazole 100 mg/kg) | CDCA-24G AUC Fold Increase ([3]; CYP3A(−/−) mice, itraconazole 100 mg/kg, vs. CYP3A(−/−) untreated) | CDCA-24G AUC Fold Increase ([3]; CYP3A(−/−) mice, itraconazole 100 mg/kg, vs. WT Alone) | CDCA-24G AUC Fold Increase ([3]; Wild-type FVB mice, itraconazole 100 mg/kg, vs. CYP3A(−/−) + Itraconazole) | CDCA-24G AUC Fold Increase ([3]; Wild-type FVB mice, itraconazole 100 mg/kg, vs. WT untreated) |
| --- | --- | --- | --- | --- | --- | --- | --- | --- |
| 27.3 µM | CCC(C)n1ncn(-c2ccc(N3CCN(c4ccc(OCC5COC(Cn6cncn6)(c6ccc(Cl)cc6Cl)O5)cc4)CC3)cc2)c1=O (stereo not shown) [Itraconazole] | not associated with changes | 5.10 (±1.60) ng ∗ h/mL | 3.30 (±1.00) ng ∗ h/mL | 1 fold | 0.9 fold | 1.5 fold | 1.3 fold |
| 2.95 µM | CC(O)C(C)n1ncn(-c2ccc(N3CCN(c4ccc(OCC5COC(Cn6cncn6)(c6ccc(Cl)cc6Cl)O5)cc4)CC3)cc2)c1=O (stereo not shown) [hydroxy-itraconazole] | – | – | – | – | – | – | – |

| SMILES | IC50 [2] | Effect on circulating levels of coproporphyrin (CP) I and CPIII [1] | CDCA-24G AUC0–4h ([3]; 100 mg/kg) | CDCA-24G AUC0–4h ([3]; CYP3A(−/−) female mice, itraconazole 100 mg/kg) | CDCA-24G AUC Fold Increase ([3]; CYP3A(−/−) mice, itraconazole 100 mg/kg, vs. CYP3A(−/−) untreated) | CDCA-24G AUC Fold Increase ([3]; CYP3A(−/−) mice, itraconazole 100 mg/kg, vs. WT Alone) | CDCA-24G AUC Fold Increase ([3]; Wild-type FVB mice, itraconazole 100 mg/kg, vs. CYP3A(−/−) + Itraconazole) | CDCA-24G AUC Fold Increase ([3]; Wild-type FVB mice, itraconazole 100 mg/kg, vs. WT untreated) |
| --- | --- | --- | --- | --- | --- | --- | --- | --- |
| CC(=O)C(C)n1ncn(-c2ccc(N3CCN(c4ccc(OC[C@H]5CO[C@](Cn6cncn6)(c6ccc(Cl)cc6Cl)O5)cc4)CC3)cc2)c1=O (stereo partly shown) [keto-itraconazole] | 7.5 µM | – | – | – | – | – | – | – |
